Experimental data reported in US20090054493A1, “THIAZOLE DERIVATIVES AS PPAR DELTA LIGANDS AND THEIR MANUFACTURING PROCESS” (priority 2005, published 2009).

Experiments:
Type in all cases: cell-based
MTT assay, cytotoxicity = conditions: African green monkey, CV-1 cells, read-out: LC50 Cytotoxicity
Description: The compounds of Examples 47-97 according to the present invention were tested for cytotoxicity using a MTT assay. MTT is a water-soluble yellow substance, but if it is introduced into living cells, it will be degenerated into a water-insoluble purple crystal due to dehydrogenase contained in mitochondria. If this substance is dissolved in dimethylsulfoxide and then measured for absorbance at 550 nm, cytotoxicity can be assayed. The test method is as follows.
CV-1 cells were first inoculated onto a 96-well plate at a concentration of 5,000 cells/well. The inoculated cells were cultured in a 5% carbon dioxide-containing humidified incubator at 37° C. for 24 hours, and then treated with the inventive compounds at various concentrations. After 24 hours of culture, a MTT reagent was added to the cultured cells. After 15 minutes of culture, the resulting purple crystal was dissolved in dimethylsulfoxide and then measured for absorbance using a microplate reader. From the measured absorbance, cytotoxicity was assayed.

PPARδ = molecular target: T1, PPARδ (Homo sapiens, UniProt Q03181); assay: Transfection assay (luciferase reporter) in CV-1 cells, PPARδ; set-up: full-length PPARs plasmid DNA; expressed in transfected cells; host or cells: CV-1 cells; conditions: full-length PPAR plasmid, luciferase normalized with β-galactosidase
T1 sequence (Q03181 1-441): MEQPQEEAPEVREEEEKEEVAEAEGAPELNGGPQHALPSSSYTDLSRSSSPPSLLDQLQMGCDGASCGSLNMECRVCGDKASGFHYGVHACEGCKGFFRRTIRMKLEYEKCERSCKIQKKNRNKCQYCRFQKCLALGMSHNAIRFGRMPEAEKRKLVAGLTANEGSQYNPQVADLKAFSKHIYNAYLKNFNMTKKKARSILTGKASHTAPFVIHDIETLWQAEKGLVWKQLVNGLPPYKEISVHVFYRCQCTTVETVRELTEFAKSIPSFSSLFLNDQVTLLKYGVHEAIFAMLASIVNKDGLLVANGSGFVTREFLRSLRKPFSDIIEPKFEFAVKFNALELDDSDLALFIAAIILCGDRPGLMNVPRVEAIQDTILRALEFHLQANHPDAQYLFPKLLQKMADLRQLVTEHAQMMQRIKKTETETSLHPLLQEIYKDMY
Description: (§1) The compounds prepared in Examples were tested for PPARδ activity by a transfection assay. In addition, the compounds were tested for selectivity for PPARα and PPARγ, the subtypes of PPARs, and also tested for toxicity by a MTT assay.
(§2) A transfection assay was performed using CV-1 cells. The culture of the cells was performed using a DMEM medium (10% FBS, DBS (delipidated) and 1% penicillin/streptomycin) on a 96-well plate in a 5% carbon dioxide-containing incubator at 37° C. […] Specifically, CV-1 cells were inoculated onto a 96-well plate at a concentration of 5,000 cells/well, and after 24 hours, the cells were transfected. In the cell transfection, full-length PPARs plasmid DNA, reporter DNA that has luciferase activity and thus allows the identification of PPARs, and β-galactosidase DNA that provides the information of transfection efficiency, were used as transfection reagents. Each of the compounds developed in the present invention was dissolved in dimethylsulfoxide (DMSO) and transfected into the cells at various concentrations using media. The cells were cultured in an incubator for 24 and then lysed with lysis buffer. The lysed cells were measured for luciferase and β-galactosidase activities using a luminometer and a microplate reader. The measured luciferase values were normalized with the β-galactosidase values and graphed. From the graph, EC50 values were determined.

PPARα = molecular target: T2, PPARα (Homo sapiens, UniProt Q07869); assay: Transfection assay (luciferase reporter) in CV-1 cells, PPARα; conditions: full-length PPAR plasmid, luciferase normalized with β-galactosidase
T2 construct: full-length PPARs plasmid DNA; expressed in transfected cells; host or cells: CV-1 cells
T2 sequence (Q07869 1-468): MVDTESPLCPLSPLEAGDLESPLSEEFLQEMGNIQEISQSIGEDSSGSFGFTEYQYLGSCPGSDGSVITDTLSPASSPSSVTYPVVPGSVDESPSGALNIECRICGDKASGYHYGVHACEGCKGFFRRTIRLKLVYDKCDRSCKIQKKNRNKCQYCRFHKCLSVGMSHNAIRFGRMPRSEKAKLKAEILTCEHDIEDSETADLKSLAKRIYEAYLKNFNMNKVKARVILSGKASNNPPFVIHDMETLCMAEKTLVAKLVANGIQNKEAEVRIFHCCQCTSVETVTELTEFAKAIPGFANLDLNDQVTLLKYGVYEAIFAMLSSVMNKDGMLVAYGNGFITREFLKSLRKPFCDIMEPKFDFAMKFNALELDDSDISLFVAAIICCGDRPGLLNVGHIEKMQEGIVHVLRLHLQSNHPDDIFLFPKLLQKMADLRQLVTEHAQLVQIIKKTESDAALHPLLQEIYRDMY
Description: as §1
A transfection assay was performed using CV-1 cells. The culture of the cells was performed using a DMEM medium (10% FBS, DBS (delipidated) and 1% penicillin/streptomycin) on a 96-well plate in a 5% carbon dioxide-containing incubator at 37° C. The test was performed in four steps consisting of cell inoculation, transfection, treatment of the compounds, and analysis of results. Specifically, CV-1 cells were inoculated onto a 96-well plate at a concentration of 5,000 cells/well, and after 24 hours, the cells were transfected. In the cell transfection, full-length PPARs plasmid DNA, reporter DNA that has luciferase activity and thus allows the identification of PPARs, and β-galactosidase DNA that provides the information of transfection efficiency, were used as transfection reagents. Each of the compounds developed in the present invention was dissolved in dimethylsulfoxide (DMSO) and transfected into the cells at various concentrations using media. The cells were cultured in an incubator for 24 and then lysed with lysis buffer. The lysed cells were measured for luciferase and β-galactosidase activities using a luminometer and a microplate reader. The measured luciferase values were normalized with the β-galactosidase values and graphed. From the graph, EC50 values were determined.

PPARγ = molecular target: T3, PPARγ (Homo sapiens, UniProt P37231); assay: Transfection assay (luciferase reporter) in CV-1 cells, PPARγ; conditions: full-length PPAR plasmid, luciferase normalized with β-galactosidase
T3 construct: full-length PPARs plasmid DNA; expressed in transfected cells; host or cells: CV-1 cells
T3 sequence (P37231 1-505): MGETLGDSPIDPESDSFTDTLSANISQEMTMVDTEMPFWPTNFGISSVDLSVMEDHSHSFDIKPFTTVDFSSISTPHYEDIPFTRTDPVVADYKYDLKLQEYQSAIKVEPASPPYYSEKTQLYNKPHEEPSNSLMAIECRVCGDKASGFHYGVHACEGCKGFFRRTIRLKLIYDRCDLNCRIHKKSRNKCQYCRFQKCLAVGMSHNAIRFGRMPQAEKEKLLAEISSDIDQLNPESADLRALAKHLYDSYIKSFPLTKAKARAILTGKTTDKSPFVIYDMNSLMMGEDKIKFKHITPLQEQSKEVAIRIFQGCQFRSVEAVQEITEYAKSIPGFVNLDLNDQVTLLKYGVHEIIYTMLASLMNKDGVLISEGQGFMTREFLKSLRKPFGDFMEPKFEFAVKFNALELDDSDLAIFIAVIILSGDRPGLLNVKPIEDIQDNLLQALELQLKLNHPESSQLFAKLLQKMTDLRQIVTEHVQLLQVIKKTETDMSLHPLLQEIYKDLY
Description: as §1, §2

| Structure (SMILES) | CC50 at 24 h (MTT assay, cytotoxicity) [µM] | EC50 (PPARδ) [µM] | EC50 (PPARα) [µM] | EC50 (PPARγ) [µM] | EC50 PPARα (PPARα) | EC50 PPARγ (PPARγ) |
| --- | --- | --- | --- | --- | --- | --- |
| Cc1cc(SC(Cc2c(F)cccc2F)c2sc(-c3ccc(C(F)(F)F)cc3)nc2C)ccc1OCC(=O)O (centres unmarked) [Example 83, 2-[4-[1-[2-[4-(trifluoromethyl)phenyl]-4-methylthiazol-5-yl]-2-(2,6-difluorophenyl)ethylthio]-2-methylphenoxy]acetic acid] | > 100 | 0.0026 | > 100 | > 10 | – | – |
| Cc1cc(SC(Cc2c(Cl)cccc2Cl)c2sc(-c3ccc(C(F)(F)F)cc3)nc2C)ccc1OCC(=O)O (centres unmarked) [Example 84, 2-[4-[2-(2,6-dichlorophenyl)-1-[2-[4-(trifluoromethyl)phenyl]-4-methylthiazol-5-yl]ethylthio]-2-methylphenoxy]acetic acid] | > 100 | 0.0021 | – | – | ia | ia |
| Cc1cc(SC(Cc2ccc(F)cc2F)c2sc(-c3ccc(C(F)(F)F)cc3)nc2C)ccc1OCC(=O)O (centres unmarked) [Example 85, 2-[4-[1-[2-[4-(trifluoromethyl)phenyl]-4-methylthiazol-5-yl]-2-(2,4-difluorophenyl)ethylthio]-2-methylphenoxy]acetic acid] | > 100 | 0.0034 | – | – | ia | ia |
| Cc1cc(SC(Cc2cc(F)ccc2Cl)c2sc(-c3ccc(C(F)(F)F)cc3)nc2C)ccc1OCC(=O)O (centres unmarked) [Example 86, 2-[4-[2-(2-chloro-5-fluorophenyl)-1-[2-[4-(trifluoromethyl)phenyl]-4-methylthiazol-5-yl]ethylthio]-2-methylphenoxy]acetic acid] | > 100 | 0.0087 | – | – | ia | ia |
| Cc1cc(SC(Cc2c(F)cccc2Cl)c2sc(-c3ccc(C(F)(F)F)c(F)c3)nc2C)ccc1OCC(=O)O (centres unmarked) [Example 91, 2-[4-[2-(2-chloro-6-fluorophenyl)-1-[2-[3-fluoro-4-(trifluoromethyl)phenyl]-4-methylthiazol-5-yl]ethylthio]-2-methylphenoxy]acetic acid] | > 10 | 0.0039 | – | – | ia | ia |
| Cc1cc(SC(Cc2cc(F)c(F)c(F)c2)c2sc(-c3ccc(C(F)(F)F)c(F)c3)nc2C)ccc1OCC(=O)O (centres unmarked) [Example 92, 2-[4-[1-[2-[3-fluoro-4-(trifluoromethyl)phenyl]-4-methylthiazol-5-yl]-2-(3,4,5-trifluorophenyl)ethylthio]-2-methylphenoxy]acetic acid] | > 30 | 0.0216 | – | – | ia | ia |
| Cc1cc(SC(Cc2c(F)cccc2C(F)(F)F)c2sc(-c3ccc(C(F)(F)F)c(F)c3)nc2C)ccc1OCC(=O)O (centres unmarked) [Example 93, 2-[4-[1-[2-[3-fluoro-4-(trifluoromethyl)phenyl]-4-methylthiazol-5-yl]-2-(2-fluoro-6-(trifluoromethyl)phenyl)ethylthio]-2-methylphenoxy]acetic acid] | > 10 | 0.0026 | – | – | ia | ia |
| Cc1cc(SC(Cc2c(F)cccc2F)c2sc(-c3ccc(C(F)(F)F)c(F)c3)nc2C)ccc1OCC(=O)O (centres unmarked) [Example 94, 2-[4-[1-[2-[3-fluoro-4-(trifluoromethyl)phenyl]-4-methylthiazol-5-yl]-2-(2,6-difluorophenyl)ethylthio]-2-methylphenoxy]acetic acid] | > 10 | 0.0009 | – | – | ia | ia |
| Cc1cc(SC(Cc2c(Cl)cccc2Cl)c2sc(-c3ccc(C(F)(F)F)c(F)c3)nc2C)ccc1OCC(=O)O (centres unmarked) [Example 95, 2-[4-[2-(2,6-dichlorophenyl)-1-[2-[3-fluoro-4-(trifluoromethyl)phenyl]-4-methylthiazol-5-yl]ethylthio]-2-methylphenoxy]acetic acid] | > 10 | 0.0023 | – | – | ia | ia |
| Cc1cc(SC(Cc2ccc(F)cc2F)c2sc(-c3ccc(C(F)(F)F)c(F)c3)nc2C)ccc1OCC(=O)O (centres unmarked) [Example 96, 2-[4-[1-[2-[3-fluoro-4-(trifluoromethyl)phenyl]-4-methylthiazol-5-yl]-2-(2,4-difluorophenyl)ethylthio]-2-methylphenoxy]acetic acid] | > 10 | 0.0048 | > 10 | – | – | ia |
| Cc1cc(SC(Cc2cc(F)ccc2Cl)c2sc(-c3ccc(C(F)(F)F)c(F)c3)nc2C)ccc1OCC(=O)O (centres unmarked) [Example 97, 2-[4-[2-(2-chloro-5-fluorophenyl)-1-[2-[3-fluoro-4-(trifluoromethyl)phenyl]-4-methylthiazol-5-yl]ethylthio]-2-methylphenoxy]acetic acid] | > 30 | 0.0174 | – | – | ia | ia |
